# Laboratory results taken from patent publication US20060105940A1, “Compound useful in the treatment or prevention of cognitive disorders associated with diabetes and associated methods” (Axonyx, Inc., priority 2004, published 2006).
# Where a name gives a salt, the structure may show the parent alone. Read-outs that look alike come from different tables or passages of the source.
# Tests used:
# [1] = biological target: T1, human BChE (Homo sapiens, UniProt P06276); conditions: human BChE freshly prepared from human plasma; see Greig et al. page 78; cited from earlier work
# T1 construct: use human BChE and AChE freshly prepared from human plasma and erythrocytes, respectively; from tissue; host or cells: human plasma
# [2] = biological target: T2, human AChE (Homo sapiens, UniProt P22303); conditions: human AChE freshly prepared from human erythrocytes; see Greig et al. page 78; cited from earlier work
# T2 construct: use human BChE and AChE freshly prepared from human plasma and erythrocytes, respectively; from tissue; host or cells: human erythrocytes
# [3] = test system: aged (24-26-month-old) Fischer-344 rats; conditions: Stone 14-unit T-maze, Greig et al. 2003; cited from earlier work
# [4] = Solubility in water / aqueous solution; assay type: physicochemical; conditions: for Solubility (in words): aqueous solution, free base versus tartrate acid addition salt
# [5] = biological target: T2, human AChE; test: Inhibition of human erythrocyte AChE activity (IC50); assay type: biochemical; conditions: human AChE freshly prepared from human erythrocytes
# From the text: (§1) Potential cholinesterase agents may be evaluated for potency in vitro by assaying its inhibitory effect on electric eel and human red blood cell ACHE and human plasma BCHE activity in cell-free extracts (See U.S. Pat. Nos. 6,495,700; 5,409,948; 5,171,750; 5,378,723; and 5,998,460). Studies also commonly utilize aged rat models to evaluate effectiveness of therapeutic drug leads in ameliorating cognitive disorders. […] (See, Greig, N. H. et al. “Butyrylcholinesterase: Its Function and Inhibition.” (ed., Giacobini, E.) Martin Dunitz, Ltd., London, 69-90, 2003, Chapter 6: Butyrylcholinesterase: its selective inhibition and relevance to Alzheimer's disease therapy at pages 80-81).
# (§2) (See, Greig, N. H. et al. at page 78). These biological activity assays use human BChE and AChE freshly prepared from human plasma and erythrocytes, respectively.
# (§3) These biological activity assays use human BChE and AChE freshly prepared from human plasma and erythrocytes, respectively.
# [6] = test system: aged (21-22 month old) Fisher-344 rats; test: Stone maze cognitive ability test after i.p. MHI tartrate (Example VII); assay type: in vivo, rat; conditions: 0.5 to 1.0 mg per kg intraperitoneal, daily, aged Fisher-344 rats
# Description: (See U.S. Pat. No. 6,683,105). MHI tartrate is administered in dosages in the range of 0.5 to 1.0 mg per kg of subject body weight. This dosage is administered daily, for example, 1-3 times per day. Effectiveness of MHI tartrate is measured by testing cognitive ability before and after administration. For instance, rats may be tested using a “Stone maze” in which a maze constructed of translucent plastic containing a grid floor wired for scrambled foot shocks surrounded by opaque gray walls to minimize effects of non-MHI tartrate related variables. Rats are given 10 seconds in which to navigate the maze. […] Similar cognitive tests, for instance timed, objective memorization tests, may be used on other subjects, such as humans.
# [7] = biological target: T1, human BChE; test: Inhibition of human plasma BChE activity (IC50); assay type: biochemical; conditions: human BChE freshly prepared from human plasma
# From the text: as §1, §2, §3
# T2 sequence (P22303 32-617 isoform P22303-2 limits assumed): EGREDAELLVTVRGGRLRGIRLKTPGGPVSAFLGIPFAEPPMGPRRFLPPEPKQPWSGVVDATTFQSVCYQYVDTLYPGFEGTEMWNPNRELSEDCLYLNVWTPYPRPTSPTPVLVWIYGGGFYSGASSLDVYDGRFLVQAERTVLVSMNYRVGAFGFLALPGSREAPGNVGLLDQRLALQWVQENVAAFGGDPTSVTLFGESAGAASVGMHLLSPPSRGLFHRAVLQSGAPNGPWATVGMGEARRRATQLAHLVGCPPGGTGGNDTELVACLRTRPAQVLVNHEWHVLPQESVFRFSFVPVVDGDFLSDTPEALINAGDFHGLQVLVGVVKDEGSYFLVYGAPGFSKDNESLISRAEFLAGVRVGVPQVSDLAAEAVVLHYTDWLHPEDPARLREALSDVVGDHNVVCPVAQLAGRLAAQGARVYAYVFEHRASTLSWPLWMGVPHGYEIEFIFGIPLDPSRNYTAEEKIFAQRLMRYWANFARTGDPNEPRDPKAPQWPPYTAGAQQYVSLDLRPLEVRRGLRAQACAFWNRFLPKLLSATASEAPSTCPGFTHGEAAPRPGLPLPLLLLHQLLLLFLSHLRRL
# T1 sequence (P06276 29-602): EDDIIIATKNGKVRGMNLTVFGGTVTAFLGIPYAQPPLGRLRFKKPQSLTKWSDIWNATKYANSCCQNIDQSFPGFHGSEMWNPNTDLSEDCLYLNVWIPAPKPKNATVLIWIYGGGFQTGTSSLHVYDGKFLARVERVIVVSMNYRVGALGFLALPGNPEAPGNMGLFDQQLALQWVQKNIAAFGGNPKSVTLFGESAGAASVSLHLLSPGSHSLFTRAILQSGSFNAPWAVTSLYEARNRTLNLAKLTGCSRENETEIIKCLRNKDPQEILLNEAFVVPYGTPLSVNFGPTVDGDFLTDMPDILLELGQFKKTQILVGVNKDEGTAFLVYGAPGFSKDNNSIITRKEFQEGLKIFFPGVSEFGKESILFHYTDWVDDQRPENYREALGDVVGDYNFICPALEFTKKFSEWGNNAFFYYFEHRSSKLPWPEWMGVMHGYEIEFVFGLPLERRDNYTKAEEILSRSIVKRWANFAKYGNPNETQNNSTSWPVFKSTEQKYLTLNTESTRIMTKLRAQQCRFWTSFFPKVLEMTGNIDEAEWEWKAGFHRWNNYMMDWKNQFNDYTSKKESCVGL
SMILES,IC50 [1],IC50 [2],Augmenting memory processing [3],Solubility ([4]; listed as MHI),Solubility (g per 100 ml Saturated H2O solution at room temperature) [4],IC50 [5],Cognitive ability (maze navigation) [6],IC50 [7],Solubility (in words) [4]
"CC(C)c1ccc(NC(=O)Oc2ccc3c(c2)C2(C)CCNC2N3)cc1 (single isomer, unassigned; (-)) [MHI (Base)]",0.001 ± 0.0001 µM,0.11 ± 0.015 µM,potent in augmenting memory processing,about 0.0005 g/ml,0.05 g g per 100 ml,,,,
"CC(C)c1ccc(NC(=O)Oc2ccc3c(c2)C2(C)CCNC2N3)cc1 [MHI tartrate, tartrate acid addition salt of the compound (−)-(3aS)-3a-methyl-1,2,3,3a,8,8a-hexahydropyrrolo-[2,3-b]indol-5-yl N-4′-isopropylphenylcarbamate]",,,,,1 g g per 100 ml,0.11 ± 0.015 µM,increase cognitive ability,0.001 ± 0.0001 µM,highly soluble
"CC(C)c1ccc(NC(=O)Oc2ccc3c(c2)[C@]2(C)CCN(CCc4ccccc4)[C@@H]2N3C)cc1 [phenethylcymserine, reference compound]",,,,,,,,,insoluble
